Tested on: Jagged1 expression in osteoblast cells
Test: Jagged1/Alp immunostaining of hind limb bones after cisplatin
Type: in vivo, nude mice
Conditions: 48 hours after treatment
Method: FIG. 5. Chemotherapy induces Jagged1 expression in osteoblast lineage cells. (A) Jagged1 mRNA expression in osteoblast MC3T3-E1-Clone #4 osteoblast cells and mesenchymal stem cells (MSC), HPMECL endothelial cells (endo), RAW264.7 pre-osteoclast cells, and SCP28 and SUM1315-M1B1 breast tumor cells 48 hr post-treatment with 25 nM paclitaxel or 10 μM cisplatin. (B) Athymic nude mice were i.v. injected with PBS or cisplatin and euthanized 48 hr later. Hind limb bones were collected for IF staining against Alp (green) and Jagged1 (red). Nuclei were counter-stained with DAPI (blue). (C-E) Athymic nude mice were treated with either PBS or cisplatin on Day 0. […] BLI imaging and quantification of BLI signal at Day 4. […]
To confirm this finding in vivo, female nude mice were treated with either PBS or cisplatin. […] In the PBS control group, Jagged1-positive cells were rarely detected, and mostly co-localizing with ALP-positive osteoblasts.
Hindlimb bones were excised from mice at the end point of each experiment, immediately after the last BLI time point. […] For quantitative analysis of lesion area, a 10× objective was used to focus on the tumor region of interest and images were acquired using the AxioCamICc3 camera set to an exposure of around 100 ms. Osteoclast number was assessed as multinucleated TRAP+ cells and reported as number/field. […]

## N.N.[Cl][Pt][Cl] [cisplatin]
  Jagged1 expression (immunostaining, Alp positive cells): much stronger Jagged1 expression
